Assay results reported in US20050208031A1, “Inhibition of calcium-independent phospholipases A2beta or A2gamma inhibit hormone-induced differentiation of 3T3-L1 preadipocytes” (priority 2003, published 2005).

Tests used:
iPLA2 = assay: Phospholipase A2 (iPLA2) activity assay in day 8 3T3-L1 cell homogenates with radiolabelled POPC; format: biochemical; settings: 10 μM BEL, 3 min preincubation, day 8 cell homogenate, FIG. 3B
Experimental: FIG. 3. Activities of PLA2 in 3T3-L1 cells during differentiation and their inhibition by BELs. 3T3-L1 cells were cultured and induced to differentiation as described in “Test Procedures.” At indicated differentiation stages, cell homogenates were prepared as described in “Test Procedures.” Phospholipase A2 activity was assessed by incubating 3T3-L1 cell protein (100-200 μg) with radiolabelled 1-palmitoyl-2-[1-^14C]-oleoyl-sn-glycerol-3-phosphocholine (POPC) (50 mCi/mmol, 5 μM final concentration, introduced by ethanol injection (2 μL)) in assay buffer (final conditions: 100 mM Tris-HCl, 4 mM EGTA, pH=7.2) at 37° C. for 30 min in a final volume of 200 μL. Reactions were quenched by addition of butanol (100 μL). 30 microliters of the organic phase was spotted on a Whatman silica plate which was developed with a nonpolar acidic mobile phase (100 mL of 70/30/1 petroleum ether/ethyl ether/acetic acid). Spots corresponding to fatty acids were scrapped into scintillation vials and radioactivity was quantified by scintillation spectrometry as described previously. A, iPLA2 activities of 3T3-L1 cells during differentiation. B, iPLA2 activities of homogenates of day 8 3T3-L1 cells after incubation at room temperature for 3 minutes in the absence or presence of 10 μM of (R)-BEL, (S)-BEL or racemic BEL.
On the day of the test, the media of 3T3-L1 cells at different stages of differentiation were removed. The cells were washed briefly with PBS and detached by incubation in trypsin-EDTA (0.25% w/v) at 37° C. for […]. The cells were washed again with 5 volumes of CMRL-1066, transferred to a 50 mL Falcon centrifuge tube and centrifuged for 5 min at 1700 rpm at 4° C. […] Briefly, phospholipase A2 activity was assessed by incubating 3T3-L1 cell protein (100-200 μg) with radiolabelled phosphatidylcholine, L-α-palmitoyl-2-oleoyl [oleoyl-1-^14C] […] Spots corresponding to fatty acids were scrapped into scintillation vials and radioactivity was quantified by scintillation spectrometry as described previously^(32). […]

iPLA2γ = biological target: T1, iPLA2γ (Homo sapiens, UniProt Q9NP80); settings: previously demonstrated; cited from earlier work
T1 sequence (Q9NP80 1-782): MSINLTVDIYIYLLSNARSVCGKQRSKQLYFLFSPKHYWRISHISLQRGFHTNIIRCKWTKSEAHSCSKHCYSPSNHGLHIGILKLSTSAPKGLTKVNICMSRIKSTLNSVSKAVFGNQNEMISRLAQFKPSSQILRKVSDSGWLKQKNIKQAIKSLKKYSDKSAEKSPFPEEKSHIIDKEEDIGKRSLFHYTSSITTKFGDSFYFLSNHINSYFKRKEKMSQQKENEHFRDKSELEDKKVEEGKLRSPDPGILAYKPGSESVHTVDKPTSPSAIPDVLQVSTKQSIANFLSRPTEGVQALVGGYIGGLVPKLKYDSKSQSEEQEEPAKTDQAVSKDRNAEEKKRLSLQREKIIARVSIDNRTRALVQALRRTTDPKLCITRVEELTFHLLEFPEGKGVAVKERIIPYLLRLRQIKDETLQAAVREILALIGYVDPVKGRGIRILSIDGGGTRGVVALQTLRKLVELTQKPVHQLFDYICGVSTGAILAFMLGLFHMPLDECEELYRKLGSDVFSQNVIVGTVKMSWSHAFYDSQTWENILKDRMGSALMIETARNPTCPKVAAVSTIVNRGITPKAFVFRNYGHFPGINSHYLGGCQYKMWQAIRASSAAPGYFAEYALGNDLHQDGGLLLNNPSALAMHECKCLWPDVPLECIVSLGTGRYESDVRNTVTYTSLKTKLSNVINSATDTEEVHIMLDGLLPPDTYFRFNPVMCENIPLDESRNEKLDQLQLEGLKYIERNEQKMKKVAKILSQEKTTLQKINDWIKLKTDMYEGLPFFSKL

3T3-L1 cells = assay: TAG accumulation during hormone-induced differentiation of 3T3-L1 cells (ESI/MS); format: cell-based; settings: 5, 10 μM BEL for 4 days, day 8, ESI/MS, FIG. 6
Experimental: FIG. 5. Effects of siRNAs directed against iPLA2β or iPLA2γ on TAG accumulation during 3T3-L1 cell differentiation. 3T3-L1 cells were cultured and transfected with 20 nM negative control siRNA, siRNA directed against iPLA2β, or siRNA directed against iPLA2γ prior to induction to differentiation as described in “Test Procedures.” 3T3-L1 cells were grown to day 8 and the cell monolayer was washed with ice-cold PBS and scraped into 1 mL 50 mM LiCl. The lipids were extracted by the method of Bligh-Dyer^(33) in the presence of an internal standard (Tril7:0TAG, 200 nmol/mg protein). Mass spectral analysis of TAG was performed by ESI/MS as described in “Test Procedures.” ESI/MS spectra of TAG of day 8 3T3-L1 cells with pretreatment of negative control siRNA (A), siRNA directed against iPLA2β (B) or siRNA directed against iPLA2γ (C) were shown. The results of TAG quantification (D) represent means ±S.E.M. of at least three independent cultures.
FIG. 6. Effects of BELs on TAG accumulation during hormone-induced differentiation of 3T3-L1 cells. 3T3-L1 cells on two days post confluent were washed three times with DMEM, incubated at 37° C. for 20 min in DMEM with 0, 5, 10 μM racemic, R-, or S-BEL. The cells were induced to differentiate as described in “Test Procedures” in the presence of indicated concentrations of BELs for 4 days. […]

iPLA2β = biological target: T2, iPLA2β (Homo sapiens, UniProt O60733); settings: previously demonstrated; cited from earlier work
T2 sequence (O60733 1-806): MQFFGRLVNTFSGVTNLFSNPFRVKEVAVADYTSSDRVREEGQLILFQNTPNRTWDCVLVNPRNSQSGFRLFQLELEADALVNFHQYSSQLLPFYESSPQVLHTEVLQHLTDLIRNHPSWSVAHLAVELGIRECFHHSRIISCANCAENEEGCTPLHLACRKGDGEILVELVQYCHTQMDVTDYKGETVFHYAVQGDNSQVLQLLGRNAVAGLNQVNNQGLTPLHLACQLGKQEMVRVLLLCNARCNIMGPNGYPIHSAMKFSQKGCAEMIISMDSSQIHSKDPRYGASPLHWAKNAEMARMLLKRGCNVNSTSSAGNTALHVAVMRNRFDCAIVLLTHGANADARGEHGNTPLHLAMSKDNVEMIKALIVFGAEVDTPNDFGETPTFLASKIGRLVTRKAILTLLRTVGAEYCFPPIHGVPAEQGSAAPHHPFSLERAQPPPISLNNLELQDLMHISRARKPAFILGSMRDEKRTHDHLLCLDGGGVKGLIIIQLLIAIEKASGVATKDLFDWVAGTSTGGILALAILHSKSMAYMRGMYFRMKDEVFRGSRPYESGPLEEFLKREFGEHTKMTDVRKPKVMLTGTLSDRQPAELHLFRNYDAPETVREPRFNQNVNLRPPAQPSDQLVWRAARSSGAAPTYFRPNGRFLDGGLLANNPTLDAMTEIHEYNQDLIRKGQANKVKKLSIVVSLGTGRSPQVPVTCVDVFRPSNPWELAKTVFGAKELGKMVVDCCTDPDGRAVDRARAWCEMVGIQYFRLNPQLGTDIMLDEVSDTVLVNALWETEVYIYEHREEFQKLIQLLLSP

Structure (SMILES) | inhibition of measured iPLA2 activity in 3T3-L1 adipocyte homogenate (iPLA2) | selectivity for iPLA2γ (iPLA2γ) | adipocyte differentiation (TAG accumulation) with BEL (3T3-L1 cells) | selectivity for iPLA2β in comparison to iPLA2γ (iPLA2β)
O=C1O/C(=C/Br)CCC1c1cccc2ccccc12 (racemic) [racemic BEL] | inhibited | – | – | –
O=C1O/C(=C/Br)CC[C@@H]1c1cccc2ccccc12 [(R)-BEL] | inhibited to similar levels | approximately an order of magnitude | substantially decreased | –
O=C1O/C(=C/Br)CC[C@H]1c1cccc2ccccc12 [(S)-BEL] | inhibited to similar levels | – | substantially decreased | approximately one order of magnitude
